Results: article PMC3174061 (Journal of the American Chemical Society, 2011)

Columns and labels:
[1] = biological target: LipO (Streptomyces sp. SANK 60405, UniProt D4QF28); assay: UV/Vis spectroscopy, co-purification; type: binding; details: co-purified cofactor, Lys282 internal aldimine expected
[2] = biological target: LipN (Streptomyces sp. SANK 60405, UniProt D4QF27); assay: HPLC, MS and NMR of product; type: biochemical; details: sugar donor, uridine as surrogate acceptor, 5 mM MgCl2, 30 °C
[3] = substrate: NC[C@H]1O[C@@H](n2ccc(=O)[nH]c2=O)[C@H](O)[C@@H]1O; assay: purified protein; type: biochemical, Escherichia coli; details: pH 7.5, […] phosphate, 30 °C

Cc1ncc(COP(=O)(O)O)c(C=O)c1O [PLP]
UV/Vis spectroscopy, co-purification [1]: shown by UV/Vis spectroscopy to co-purify with the cofactor PLP

NC[C@H]1O[C@H](OP(=O)(O)OP(=O)(O)OC[C@H]2O[C@@H](n3ccc(=O)[nH]c3=O)[C@H](O)[C@@H]2O)[C@H](O)[C@@H]1O [UDP-5-amino-5-deoxy-α-D-ribose]
HPLC, MS and NMR of product; donor generated in situ by LipP and LipM [2]: higher yields were obtained with the genuine sugar donor UDP-5-amino-5-deoxy-α-D-ribose

B1: EcUdp (Escherichia coli K-12) (protein)
chain: SKSDVFHLGLTKNDLQGATLAIVPGDPDRVEKIAALMDKPVKLASHREFTTWRAELDGKPVIVCSTGIGGPSTSIAVEELAQLGIRTFLRIGTTGAIQPHINVGDVLVTTASVRLDGASLHFAPLEFPAVADFECTTALVEAAKSIGATTHVGVTASSDTFYPGQERYDTYSGRVVRHFKGSMEEWQAMGVMNYEMESATLLTMCASQGLRAGMVAGVIVNRTQQEIPNAETMKQTESHAVKIVVEAARRLL
Km [3]: (2.0 ± 0.5) × 10^3 µM
kcat [3]: 5.33 ± 0.667 s⁻¹
